Assay results from patent US9051310B2, “Nicotinamide derivative or salt thereof” (FUJIFILM Corporation, priority 2011, dated 2015).

Legend:
[1] = target: T1, glutathione S-transferase (GST)-linked full-length human Syk protein (Homo sapiens, UniProt P43405); assay: Syk enzyme assay; assay type: biochemical; settings: 0.83 nM Syk, time-resolved fluorescence; read-out: IC50 of Syk-inhibitory activity
T1 construct: glutathione S-transferase (GST)-linked full-length human Syk protein; purchased Carna Biosciences; host or cells: Baculovirus expression system
Procedure, shortened: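 Phosphotyrosine on a biotin-peptide substrate (0.5 μM) was read by time-resolved fluorescence at 615 and 665 nm with Eu-anti-pTyr antibody and APC-streptavidin after 1 h EDTA stop.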

[2] = system: THP-1 cells (TNFα secretion on human IgG-coated plate); assay: TNFα generation assay; assay type: cell-based; settings: IFN-γ differentiated THP-1 cells, 7 hours, AlphaLISA, read-out: IC50 of TNFα generation inhibitory activity
Description: THP-1 cells (2×10^5 cells/ml), which were human monocytoid cells, were cultured in the presence of 10 ng/ml IFN-γ (Roche) for 2 days, and they were induced to differentiate into macrophage-like cells. The differentiation-induced THP-1 cells were recovered, and the cells (1×10^6 cell/ml) were then allowed to react with a predetermined concentration of test compound at room temperature for 30 minutes. On the other hand, 100 μl of human IgG (10 μg/ml, SIGMA-ALDRICH) diluted with PBS was added to a 96-well plate, and it was then incubated at room temperature overnight. Thereafter, the resultant was washed with PBS twice to produce a human IgG-coated plate. A cell fluid that contained a compound was plated on the obtained human IgG-coated plate (5×10^4 cells/well), and it was then cultured for 7 hours. Thereafter, the cultured solution was recovered, and the amount of TNFα secreted into the culture solution was then measured by the AlphaLISA method (PerkinElmer).

Structure (SMILES)	IC50 [1] [nM]	IC50 [2] [nM]
COc1cc(Nc2nc(N[C@H](C3CCC3)[C@H](C)N)c(F)cc2C(N)=O)ccn1 [Example 2-5, 6-(((1R,2S)-2-amino-1-cyclobutylpropyl)amino)-5-fluoro-2-((2-methoxypyridin-4-yl)amino)nicotinamide]	< 10	65 to 130
COCCOc1cc(Nc2nc(N[C@H](C3CCC3)[C@H](C)N)c(F)cc2C(N)=O)ccn1 [Example 2-7, 6-(((1R,2S)-2-amino-1-cyclobutylpropyl)amino)-5-fluoro-2-((2-(2-methoxyethoxy)pyridin-4-yl)amino)nicotinamide]	< 10	65 to 130
CCn1ncc2cc(Nc3nc(N[C@H](C4CCC4)[C@H](C)N)c(F)cc3C(N)=O)ccc21 [Example 2-9]	< 10	65 to 130
Cc1cccc(Nc2nc(N[C@H](C3CCC3)[C@H](C)N)c(F)cc2C(N)=O)c1 [Example 2-25, 6-(((1R,2S)-2-amino-1-cyclobutylpropyl)amino)-5-fluoro-2-(m-tolylamino)nicotinamide]	< 10	130 to 200
Cc1cc(C)cc(Nc2nc(N[C@H](C3CCC3)[C@H](C)N)c(F)cc2C(N)=O)c1 [Example 2-26, 6-(((1R,2S)-2-amino-1-cyclobutylpropyl)amino)-2-((3,5-dimethylphenyl)amino)-5-fluoronicotinamide]	< 10	130 to 200
Cc1ncc(Nc2nc(N[C@H](c3ccc(F)cc3)[C@H](C)N)c(F)cc2C(N)=O)cc1-n1nccn1 [Example 2-32, 6-(((1R,2S)-2-amino-1-(4-fluorophenyl)propyl)amino)-5-fluoro-2-((6-methyl-5-(2H-1,2,3-triazol-2-yl)pyridin-3-yl)ammo)nicotinamide]	< 10	130 to 200
CC[C@H](N)[C@@H](C)Nc1nc(Nc2cnc(C)c(-n3nccn3)c2)c(C(N)=O)cc1F [Example 2-33, 6-(((2R,3S)-3-aminopentan-2-yl)amino)-5-fluoro-2-((6-methyl-5-(2H-1,2,3-triazol-2-yl)pyridin-3-yl)amino)nicotinamide]	10 to 50	130 to 200
CC(C)C[C@@H](Nc1nc(Nc2ccc3cnn(C)c3c2)c(C(N)=O)cc1F)[C@H](C)N [Example 2-37, 6-(((2S,3R)-2-amino-5-methylhexan-3-yl)amino)-5-fluoro-2-((1-methyl-1H-indazol-6-yl)amino)nicotinamide]	< 10	65 to 130
Cc1ncc(Nc2nc(N[C@H](c3cc(F)cc(F)c3)[C@H](C)N)c(F)cc2C(N)=O)cc1-n1nccn1 [Example 2-548, 6-(((1R,2S)-2-amino-1-(3,5-difluorophenyl)propyl)amino)-5-fluoro-2-((6-methyl-5-(2H-1,2,3-triazol-2-yl)pyridin-3-yl)amino)nicotinamide]	10 to 50	–
C[C@H](N)[C@H](Nc1nc(Nc2ccc3c(c2)c(N(C)C)nn3C)c(C(N)=O)cc1F)c1cc(F)cc(F)c1 [Example 2-549, 6-(((1R,2S)-2-amino-1-(3,5-difluorophenyl)propyl)amino)-2-((3-(dimethylamino)-1-methyl-1H-indazol-5-yl)amino)-5-fluoronicotinamide]	10 to 50	–
Cc1ncc(Nc2nc(N[C@H](c3ccc(F)c(F)c3)[C@H](C)N)c(F)cc2C(N)=O)cc1-n1nccn1 [Example 2-552, 6-(((1R,2S)-2-amino-1-(3,4-difluorophenyl)propyl)amino)-5-fluoro-2-((6-methyl-5-(2H-1,2,3-triazol-2-yl)pyridin-3-yl)amino)nicotinamide]	< 10	–
COCCn1ncc2cc(Nc3nc(N[C@H](c4ccc(F)c(F)c4)[C@H](C)N)c(F)cc3C(N)=O)ccc21 [Example 2-554, 6-(((1R,2S)-2-amino-1-(3,4-difluorophenyl)propyl)amino)-5-fluoro-2-((1-(2-methoxyethyl)-1H-indazol-5-yl)amino)nicotinamide]	< 10	–

The next lines start with the values.

IC50 [1] [nM]	IC50 [2] [nM]	Structure (SMILES)
< 10	130 to 200	COc1cc(Nc2nc(N[C@H](C3CCC3)[C@H](C)N)c(F)cc2C(N)=O)cc(OC)n1 [Example 2-6, 6-(((1R,2S)-2-amino-1-cyclobutylpropyl)amino)-2-((2,6-dimethoxypyridin-4-yl)amino)-5-fluoronicotinamide]
< 10	< 65	C[C@H](N)[C@H](Nc1nc(Nc2ccc3ncccc3c2)c(C(N)=O)cc1F)C1CCC1 [Example 2-8, 6-(((1R,2S)-2-amino-1-cyclobutylpropyl)amino)-5-fluoro-2-(quinolin-6-ylamino)nicotinamide]
< 10	< 65	C[C@H](N)[C@H](Nc1nc(Nc2ccc3cnn(C)c3c2)c(C(N)=O)cc1F)C1CCC1 [Example 2-10, 6-(((1R,2S)-2-amino-1-cyclobutylpropyl)amino)-5-fluoro-2-((1-methyl-1H-indazol-6-yl)amino)nicotinamide]
< 10	130 to 200	CCn1ncc2ccc(Nc3nc(N[C@H](CC(C)C)[C@H](C)N)c(F)cc3C(N)=O)cc21 [Example 2-11, 6-(((2S,3R)-2-amino-5-methylhexan-3-yl)amino)-2-((1-ethyl-1H-indazol-6-yl)amino)-5-fluoronicotinamide]
< 10	130 to 200	CCCC[C@@H](Nc1nc(Nc2cnc(C)c(C)c2)c(C(N)=O)cc1F)[C@H](C)N [Example 2-19, 6-(((2S,3R)-2-aminoheptan-3-yl)amino)-2-((5,6-dimethylpyridin-3-yl)amino)-5-fluoronicotinamide]
< 10	65 to 130	NC(=O)c1cc(F)c(N[C@@H]2CCCC[C@@H]2N)nc1Nc1cccc2c1cnn2CC(F)F [Example 2-20, 6-(((1R,2S)-2-aminocyclohexyl)amino)-2-((1-(2,2-difluoroethyl)-1H-indazol-4-yl)amino)-5-fluoronicotinamide]
< 10	130 to 200	C[C@H](N)[C@H](Nc1nc(Nc2cncc(-n3cccn3)c2)c(C(N)=O)cc1F)C1CCC1 [Example 2-24, 2-((5-(1H-pyrazol-1-yl)pyridin-3-yl)amino)-6-(((1R,2S)-2-amino-1-cyclobutylpropyl)amino)-5-fluoronicotinamide]
< 10	65 to 130	COc1cccc(Nc2nc(N[C@H](C3CCC3)[C@H](C)N)c(F)cc2C(N)=O)c1 [Example 2-27, 6-(((1R,2S)-2-amino-1-cyclobutylpropyl)amino)-5-fluoro-2-((3-methoxyphenyl)amino)nicotinamide]
< 10	65 to 130	COc1ccc(Nc2nc(N[C@H](C3CCC3)[C@H](C)N)c(F)cc2C(N)=O)cc1OC [Example 2-29]
< 10	65 to 130	CCCC[C@@H](Nc1nc(Nc2ccc3cnn(C)c3c2)c(C(N)=O)cc1F)[C@H](C)N [Example 2-38, 6-(((2S,3R)-2-aminoheptan-3-yl)amino)-5-fluoro-2-((1-methyl-1H-indazol-6-yl)amino)nicotinamide]
< 10	< 65	CC[C@H](N)[C@@H](C)Nc1nc(Nc2ccc3cnn(C)c3c2)c(C(N)=O)cc1F [Example 2-39, 6-(((2R,3S)-3-aminopentan-2-yl)amino)-5-fluoro-2-((1-methyl-1H-indazol-6-yl)amino)nicotinamide]
< 10	65 to 130	CC[C@H](N)[C@@H](C)Nc1nc(Nc2cncc(C3CC3)c2)c(C(N)=O)cc1F [Example 2-41, 6-(((2R,3S)-3-aminopentan-2-yl)amino)-2-((5-cyclopropylpyridin-3-yl)amino)-5-fluoronicotinamide]
< 10	–	COCCn1ncc2cc(Nc3nc(N[C@H](c4cc(F)cc(F)c4)[C@H](C)N)c(F)cc3C(N)=O)ccc21 [Example 2-550, 6-(((1R,2S)-2-amino-1-(3,5-difluorophenyl)propyl)amino)-5-fluoro-2-((1-(2-methoxyethyl)-1H-indazol-5-yl)amino)nicotinamide]
10 to 50	–	CCn1ncc2c(Nc3nc(N[C@H](c4cc(F)cc(F)c4)[C@H](C)N)c(F)cc3C(N)=O)cccc21 [Example 2-551, 6-(((1R,2S)-2-amino-1-[3,5-difluorophenyl)propyl)amino)-2-((1-ethyl-1H-indazol-4-yl)amino)-5-fluoronicotinamide]
< 10	–	C[C@H](N)[C@H](Nc1nc(Nc2ccc3c(c2)c(N(C)C)nn3C)c(C(N)=O)cc1F)c1ccc(F)c(F)c1 [Example 2-553, 6-(((1R,2S)-2-amino-1-(3,4-difluorophenyl)propyl)amino)-2-((3-(dimethylamino)-1-methyl-1H-indazol-5-yl)amino)-5-fluoronicotinamide]
< 10	–	CCn1ncc2c(Nc3nc(N[C@H](c4ccc(F)c(F)c4)[C@H](C)N)c(F)cc3C(N)=O)cccc21 [Example 2-555, 6-(((1R,2S)-2-amino-1-(3,4-difluorophenyl)propyl)amino)-2-((1-ethyl-1H-indazol-4-yl)amino)-5-fluoronicotinamide]
50 to 100	–	C[C@H](N)[C@H](Nc1nc(Nc2cnc(N3CCOCC3)nc2)c(C(N)=O)cc1F)C1CC1 [Example 2-563, 6-(((1R,2S)-2-amino-1-cyclopropylpropyl)amino)-5-fluoro-2-((2-morpholinopyrimidin-5-yl)amino)nicotinamide]
